Consider 20 molecules from PMC6272893, “NO-Releasing Enmein-Type Diterpenoid Derivatives with Selective Antiproliferative Activity and Effects on Apoptosis-Related Proteins” (Molecules, 2016).

In one assay the test system is Bel-7402 cells. Description: MTT antiproliferative assay, Bel-7402. The format is cell-based, human. The settings on record: Homo sapiens, Bel-7402; MTT, 72 h, mean ± S.D. of three experiments. The method, then: [The source words this procedure for another cell line and reports this cell line under the same test.] (§1) Cytotoxicity assay in vitro was employed by the MTT assay following the methodology described previously, which was performed in flat-bottomed 96-well plates. In short, exponentially growing MGC-803 cells at the log phase were added to each well at a density of 5 × 10^3 per well, then treated with serial dilutions of the compounds in three replicates at various concentrations (0.039–40 µg/mL). After 72 h, 20 µL of MTT solution (5 mg/mL) per well was added to each cultured medium. Then, DMSO was added to each well (150 µL/well). After 10 min at room temperature, the absorbance (OD) was read on a microplate reader at the wavelength of 490 nm (BIO-RAD Instruments Inc. 550, Hercules, CA, USA). In these experiments, taxol was used as the positive reference with the concentration of 10 µg/mL.
A general note: Formazan colour is commonly taken as a measure of viable cells.

A further assay has as its system L-02 normal liver cells. The experiment in a line: MTT antiproliferative assay, L-02. The settings on record: for IC50: 72 h, read-out: antiproliferative activity IC50, L-02. The format is cell-based. The method, then: [The source words this procedure for another cell line and reports this cell line under the same test.] as §1
The subject of the next assay is K562 cells. Description: MTT antiproliferative assay, K562. It is filed as cell-based, human. The settings on record: Homo sapiens, K562; MTT, 72 h, mean ± S.D. of three experiments. The method, then: [The source words this procedure for another cell line and reports this cell line under the same test.] as §1
The subject of another assay is MGC-803 cells. The experiment in a line: MTT antiproliferative assay, MGC-803. It is filed as cell-based, human. The settings on record: Homo sapiens, MGC-803; MTT, 72 h, mean ± S.D. of three experiments. The method, then: as §1
Another assay has as its system CaEs-17 cells. Description: MTT antiproliferative assay, CaEs-17. The format is cell-based, human. The settings on record: Homo sapiens, CaEs17; MTT, 72 h, mean ± S.D. of three experiments. The method, then:
[The source words this procedure for another cell line and reports this cell line under the same test.] as §1

Setting [1] is: MTT, mean ± S.D. of three experiments.

Structures are written as SMILES. Like-named read-outs stand apart in the source and are kept apart here.

For `C=C1C(=O)[C@]23[C@H](O)[C@H]1CC[C@H]2[C@@]12CO[C@]3(O)[C@@H](O)[C@@H]1C(C)(C)CC[C@@H]2O` [Compound 1, oridonin, reference compound], the concentration for half-maximal inhibition (IC50) (in general, the midpoint of a concentration-inhibition curve) was 7.48 ± 0.32 µM in the assay on Bel-7402 cells; 18.3 ± 0.8 µM with L-02 normal liver cells (setting [1]); 4.76 ± 0.32 µM in the assay on K562 cells; 5.69 ± 0.39 µM with MGC-803 cells; 11 ± 1 µM with CaEs-17 cells. The “SI (selectivity index)” value in the assay with L-02 normal liver cells (selectivity between tumor and normal liver cells) is “about 2.4”.

As for `O=C(O)CCC(=O)OCCOc1no[n+]([O-])c1S(=O)(=O)c1ccccc1` [Compound 7a], the IC50 was found to be 22 ± 0.8 µM with Bel-7402 cells; 37.8 ± 1.3 µM in the assay with L-02 normal liver cells (setting [1]); 22.6 ± 2 µM in the assay with K562 cells; 25.4 ± 1.5 µM with MGC-803 cells; 24.3 ± 0.9 µM in the assay on CaEs-17 cells.

Turning to `O=C(O)CCCC(=O)OCCOc1no[n+]([O-])c1S(=O)(=O)c1ccccc1` [Compound 7b], the IC50 in the assay with Bel-7402 cells was 22.3 ± 1.6 µM; with L-02 normal liver cells (setting [1]), 39.6 ± 1.4 µM; in the assay on K562 cells it was 24.2 ± 2.5 µM; in the assay on MGC-803 cells, 22.2 ± 2.5 µM; in the assay with CaEs-17 cells it was 25.7 ± 1.4 µM.

With `O=C(O)c1ccccc1C(=O)OCCOc1no[n+]([O-])c1S(=O)(=O)c1ccccc1` [Compound 7c], the half-maximal inhibitory concentration (IC50) came to 19.6 ± 1 µM with Bel-7402 cells; 41.3 ± 2.9 µM in the assay with L-02 normal liver cells (setting [1]); 22.6 ± 1.7 µM in the assay with K562 cells; 24.6 ± 1.4 µM with MGC-803 cells; 23.8 ± 1 µM with CaEs-17 cells.

Take `O=C(O)CCC(=O)OCCCOc1no[n+]([O-])c1S(=O)(=O)c1ccccc1` [Compound 7d]: the half-inhibitory concentration (IC50) is 17.8 ± 1.4 µM with Bel-7402 cells; 37.4 ± 0.8 µM in the assay on L-02 normal liver cells (setting [1]); 17.5 ± 1.4 µM in the assay with K562 cells; 18.5 ± 0.8 µM in the assay with MGC-803 cells; 19.8 ± 1.3 µM in the assay with CaEs-17 cells.

On to `O=C(O)CCCC(=O)OCCCOc1no[n+]([O-])c1S(=O)(=O)c1ccccc1` [Compound 7e], for which the concentration for half-maximal inhibition (IC50) in the assay on Bel-7402 cells amounted to 18.6 ± 0.8 µM; in the assay with L-02 normal liver cells (setting [1]), 36.3 ± 2.1 µM; in the assay with K562 cells, 18.5 ± 1.6 µM; in the assay on MGC-803 cells it was 20 ± 1.1 µM; with CaEs-17 cells, 18.7 ± 1 µM.

For the molecule `O=C(O)c1ccccc1C(=O)OCCCOc1no[n+]([O-])c1S(=O)(=O)c1ccccc1` [Compound 7f], the IC50 with Bel-7402 cells amounted to 16.7 ± 0.8 µM; with L-02 normal liver cells (setting [1]), 35.8 ± 1.3 µM; with K562 cells it was 17.5 ± 1 µM; with MGC-803 cells it was 19.3 ± 0.6 µM; in the assay on CaEs-17 cells, 19.2 ± 0.7 µM.

Consider `O=C(O)CCC(=O)OCCCCOc1no[n+]([O-])c1S(=O)(=O)c1ccccc1` [Compound 7g], for which the concentration for half-maximal inhibition (IC50) in the assay with Bel-7402 cells was 22.7 ± 1 µM; with L-02 normal liver cells (setting [1]), 39.4 ± 2.6 µM; with K562 cells, 24 ± 1.4 µM; in the assay with MGC-803 cells, 20.6 ± 1.7 µM; in the assay with CaEs-17 cells, 25.7 ± 0.7 µM.

Regarding `O=C(O)CCCC(=O)OCCCCOc1no[n+]([O-])c1S(=O)(=O)c1ccccc1` [Compound 7h], the concentration for half-maximal inhibition (IC50) with Bel-7402 cells was found to be 21.3 ± 0.7 µM; with L-02 normal liver cells (setting [1]) it was 35.4 ± 1.4 µM; with K562 cells, 24.5 ± 1.4 µM; in the assay with MGC-803 cells, 23.5 ± 1 µM; with CaEs-17 cells, 22.9 ± 1.4 µM.

As to `O=C(O)c1ccccc1C(=O)OCCCCOc1no[n+]([O-])c1S(=O)(=O)c1ccccc1` [Compound 7i], the IC50 was 22.4 ± 1.6 µM in the assay on Bel-7402 cells; 37.9 ± 2.8 µM in the assay with L-02 normal liver cells (setting [1]); 23 ± 1.2 µM in the assay on K562 cells; 21.6 ± 1.5 µM in the assay with MGC-803 cells; 24.8 ± 1.5 µM with CaEs-17 cells.

As for `C=C1C(=O)C23C(=O)OC4CCC(C)(C)C5C(=O)OCC45C2CCC1C3O` (centres unmarked) [Compound 9], the IC50 in the assay with Bel-7402 cells was found to be 16 ± 1.1 µM; in the assay on L-02 normal liver cells, 26.4 ± 1.3 µM; with K562 cells, 2.64 ± 0.19 µM; with MGC-803 cells, 5.84 ± 0.57 µM; with CaEs-17 cells, 23.7 ± 1.8 µM.

Consider `C=C1C(=O)C23C(=O)OC4CCC(C)(C)C5C(=O)OCC45C2CCC1C3OC(=O)CCC(=O)OCCOc1no[n+]([O-])c1S(=O)(=O)c1ccccc1` (centres unmarked) [Compound 10a], for which the concentration for half-maximal inhibition (IC50) with Bel-7402 cells was 1.91 ± 0.09 µM; with L-02 normal liver cells (setting [1]), 24.4 ± 0.8 µM; with K562 cells, 2.86 ± 0.05 µM; in the assay with MGC-803 cells it was 2.84 ± 1.12 µM; in the assay on CaEs-17 cells, 5.68 ± 0.53 µM.

With `C=C1C(=O)C23C(=O)OC4CCC(C)(C)C5C(=O)OCC45C2CCC1C3OC(=O)CCCC(=O)OCCOc1no[n+]([O-])c1S(=O)(=O)c1ccccc1` (centres unmarked) [Compound 10b], the 50% inhibitory concentration (IC50) in the assay on Bel-7402 cells amounted to 1.75 ± 0.12 µM; in the assay on L-02 normal liver cells (setting [1]) it was 22.1 ± 1.3 µM; with K562 cells it was 2.9 ± 0.17 µM; in the assay with MGC-803 cells, 2.67 ± 0.24 µM; in the assay with CaEs-17 cells, 5.56 ± 0.06 µM.

As for `C=C1C(=O)C23C(=O)OC4CCC(C)(C)C5C(=O)OCC45C2CCC1C3OC(=O)c1ccccc1C(=O)OCCOc1no[n+]([O-])c1S(=O)(=O)c1ccccc1` (centres unmarked) [Compound 10c], the IC50 worked out at 1.01 ± 0.04 µM in the assay on Bel-7402 cells; 31.2 ± 1.2 µM in the assay on L-02 normal liver cells (setting [1]); 1.97 ± 0.18 µM in the assay on K562 cells; 1.6 ± 0.15 µM in the assay on MGC-803 cells; 4.02 ± 0.14 µM in the assay with CaEs-17 cells.

As to `C=C1C(=O)C23C(=O)OC4CCC(C)(C)C5C(=O)OCC45C2CCC1C3OC(=O)CCC(=O)OCCCOc1no[n+]([O-])c1S(=O)(=O)c1ccccc1` (centres unmarked) [Compound 10d], the 50% inhibitory concentration (IC50) was 1.17 ± 0.02 µM in the assay on Bel-7402 cells; 27.4 ± 1 µM in the assay with L-02 normal liver cells (setting [1]); 2.04 ± 0.1 µM in the assay on K562 cells; 2.03 ± 0.15 µM with MGC-803 cells; 4.84 ± 0.47 µM in the assay with CaEs-17 cells.

With `C=C1C(=O)C23C(=O)OC4CCC(C)(C)C5C(=O)OCC45C2CCC1C3OC(=O)CCCC(=O)OCCCOc1no[n+]([O-])c1S(=O)(=O)c1ccccc1` (centres unmarked) [Compound 10e], the IC50 with Bel-7402 cells stood at 1.12 ± 0.09 µM; in the assay with L-02 normal liver cells (setting [1]), 29.3 ± 0.9 µM; in the assay with K562 cells it was 2.02 ± 0.17 µM; in the assay with MGC-803 cells it was 1.91 ± 0.09 µM; in the assay with CaEs-17 cells it was 4.04 ± 0.23 µM.

For `C=C1C(=O)C23C(=O)OC4CCC(C)(C)C5C(=O)OCC45C2CCC1C3OC(=O)CCC(=O)OCCCCOc1no[n+]([O-])c1S(=O)(=O)c1ccccc1` (centres unmarked) [Compound 10g], the 50% inhibitory concentration (IC50) came out at 1.85 ± 0.11 µM in the assay on Bel-7402 cells; 33.9 ± 1.5 µM in the assay on L-02 normal liver cells (setting [1]); 2.82 ± 0.22 µM in the assay on K562 cells; 2.8 ± 0.09 µM with MGC-803 cells; 5.52 ± 0.08 µM with CaEs-17 cells.

In the case of `C=C1C(=O)C23C(=O)OC4CCC(C)(C)C5C(=O)OCC45C2CCC1C3OC(=O)CCCC(=O)OCCCCOc1no[n+]([O-])c1S(=O)(=O)c1ccccc1` (centres unmarked) [Compound 10h], the half-inhibitory concentration (IC50) in the assay with Bel-7402 cells amounted to 1.65 ± 0.12 µM; with L-02 normal liver cells (setting [1]) it was 29.8 ± 0.9 µM; in the assay with K562 cells, 2.78 ± 0.2 µM; in the assay on MGC-803 cells, 2.65 ± 0.16 µM; with CaEs-17 cells, 5.48 ± 0.21 µM.

Take `C=C1C(=O)C23C(=O)OC4CCC(C)(C)C5C(=O)OCC45C2CCC1C3OC(=O)c1ccccc1C(=O)OCCCCOc1no[n+]([O-])c1S(=O)(=O)c1ccccc1` (centres unmarked) [Compound 10i]: the IC50 in the assay with Bel-7402 cells turned out to be 1.09 ± 0.09 µM; in the assay with L-02 normal liver cells (setting [1]), 27.7 ± 1.3 µM; with K562 cells it was 2.06 ± 0.16 µM; with MGC-803 cells, 1.64 ± 0.12 µM; in the assay with CaEs-17 cells, 4.13 ± 0.29 µM.

`CC(=O)O[C@H]1C(=O)[C@@]2(C)[C@H]([C@H](OC(=O)c3ccccc3)[C@]3(O)C[C@H](OC(=O)[C@H](O)[C@@H](NC(=O)c4ccccc4)c4ccccc4)C(C)=C1C3(C)C)[C@]1(OC(C)=O)CO[C@@H]1C[C@@H]2O` [Taxol, reference compound]: the concentration for half-maximal inhibition (IC50) with Bel-7402 cells came out at 1.89 ± 0.09 µM; with L-02 normal liver cells (setting [1]), 3.73 ± 0.17 µM; in the assay on K562 cells, 0.41 ± 0.02 µM; in the assay on MGC-803 cells, 4.65 ± 0.29 µM; with CaEs-17 cells, 0.43 ± 0.03 µM.
